Literature values as cited in US10709666B2, “Carrier particles for dry powder formulations for inhalation” (CHIESI FARMACEUTICI S.P.A., priority 2017, dated 2020).

Conditions: room temperature

saturated concentration in water | SMILES
18-19 % w/v | O.OC[C@H]1O[C@@H](O[C@H]2[C@H](O)[C@@H](O)[C@@H](O)O[C@@H]2CO)[C@H](O)[C@@H](O)[C@H]1O [alpha-lactose monohydrate]
18-21 % w/v | OC[C@@H](O)[C@@H](O)[C@H](O)[C@H](O)CO [mannitol]
